# Key:
# [1] = Non-specific binding assessment, uptake transporter format (cell-free poly-D-lysine plates); format: in vitro ADME; details: cell-free poly-D-lysine-coated 24-well plates, without BSA pre-incubation, both matrices
# Description: Two treatments (three wells each) were included: in the first treatment, the wells were pre-incubated for 5 minutes with HBSSg_7.4_BSA or HBSSg_8.5_BSA; in the second treatment, no pre-incubation was performed (Table 32). After the pre-incubation, the solution was aspirated, and dosing solution (500 μL) was added to each well. […] After the incubation, aliquots (200 μL) were withdrawn from each chamber, combined with an equal volume of acetonitrile containing IS, and stored at 4° C. until analysis.
# [2] = design: species or system male Sprague Dawley rats; details: rat, in vivo
# Description: Total urine recovery data for Tenofovir, TDF, and PB was calculated for the 24 hour collection period on Days 1 and 5. […] The reported urine recovery data included amount recovered (ng) and percent recovered (%) for […]. Individual and mean Tenofovir, TDF, and PB urine recovery data were presented with SD, reported to three significant figures, and CV %, reported to one decimal place.
# OATP1B1 = biological target: T1, OATP1B1 (Homo sapiens, UniProt Q9Y6L6)
# T1 sequence (Q9Y6L6 1-691): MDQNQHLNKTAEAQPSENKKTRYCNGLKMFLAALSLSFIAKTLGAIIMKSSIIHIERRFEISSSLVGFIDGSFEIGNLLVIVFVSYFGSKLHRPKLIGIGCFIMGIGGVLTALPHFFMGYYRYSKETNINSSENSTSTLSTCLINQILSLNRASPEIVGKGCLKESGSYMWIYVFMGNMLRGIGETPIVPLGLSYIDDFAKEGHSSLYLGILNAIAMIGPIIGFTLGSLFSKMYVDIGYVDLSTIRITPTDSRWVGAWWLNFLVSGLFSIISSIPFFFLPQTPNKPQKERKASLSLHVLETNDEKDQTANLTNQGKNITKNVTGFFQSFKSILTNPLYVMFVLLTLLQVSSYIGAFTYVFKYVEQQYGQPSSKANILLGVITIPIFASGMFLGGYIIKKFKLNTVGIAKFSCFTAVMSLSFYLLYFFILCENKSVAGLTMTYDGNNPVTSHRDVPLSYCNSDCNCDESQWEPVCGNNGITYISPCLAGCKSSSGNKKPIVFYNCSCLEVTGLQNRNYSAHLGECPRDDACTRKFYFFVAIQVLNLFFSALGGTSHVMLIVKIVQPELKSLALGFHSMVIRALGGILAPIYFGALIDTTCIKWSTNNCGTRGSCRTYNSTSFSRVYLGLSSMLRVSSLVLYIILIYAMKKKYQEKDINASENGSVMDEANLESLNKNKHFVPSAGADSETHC
# [3] = male, CD (Sprague-Dawley) IGS, rat, in vivo
# P-gp = P-gp (Homo sapiens, UniProt P08183); assay: P-gp IC50 assessment, bidirectional digoxin transport in MDR1-MDCK cells
# Sequence of P-gp (P08183 whole entry): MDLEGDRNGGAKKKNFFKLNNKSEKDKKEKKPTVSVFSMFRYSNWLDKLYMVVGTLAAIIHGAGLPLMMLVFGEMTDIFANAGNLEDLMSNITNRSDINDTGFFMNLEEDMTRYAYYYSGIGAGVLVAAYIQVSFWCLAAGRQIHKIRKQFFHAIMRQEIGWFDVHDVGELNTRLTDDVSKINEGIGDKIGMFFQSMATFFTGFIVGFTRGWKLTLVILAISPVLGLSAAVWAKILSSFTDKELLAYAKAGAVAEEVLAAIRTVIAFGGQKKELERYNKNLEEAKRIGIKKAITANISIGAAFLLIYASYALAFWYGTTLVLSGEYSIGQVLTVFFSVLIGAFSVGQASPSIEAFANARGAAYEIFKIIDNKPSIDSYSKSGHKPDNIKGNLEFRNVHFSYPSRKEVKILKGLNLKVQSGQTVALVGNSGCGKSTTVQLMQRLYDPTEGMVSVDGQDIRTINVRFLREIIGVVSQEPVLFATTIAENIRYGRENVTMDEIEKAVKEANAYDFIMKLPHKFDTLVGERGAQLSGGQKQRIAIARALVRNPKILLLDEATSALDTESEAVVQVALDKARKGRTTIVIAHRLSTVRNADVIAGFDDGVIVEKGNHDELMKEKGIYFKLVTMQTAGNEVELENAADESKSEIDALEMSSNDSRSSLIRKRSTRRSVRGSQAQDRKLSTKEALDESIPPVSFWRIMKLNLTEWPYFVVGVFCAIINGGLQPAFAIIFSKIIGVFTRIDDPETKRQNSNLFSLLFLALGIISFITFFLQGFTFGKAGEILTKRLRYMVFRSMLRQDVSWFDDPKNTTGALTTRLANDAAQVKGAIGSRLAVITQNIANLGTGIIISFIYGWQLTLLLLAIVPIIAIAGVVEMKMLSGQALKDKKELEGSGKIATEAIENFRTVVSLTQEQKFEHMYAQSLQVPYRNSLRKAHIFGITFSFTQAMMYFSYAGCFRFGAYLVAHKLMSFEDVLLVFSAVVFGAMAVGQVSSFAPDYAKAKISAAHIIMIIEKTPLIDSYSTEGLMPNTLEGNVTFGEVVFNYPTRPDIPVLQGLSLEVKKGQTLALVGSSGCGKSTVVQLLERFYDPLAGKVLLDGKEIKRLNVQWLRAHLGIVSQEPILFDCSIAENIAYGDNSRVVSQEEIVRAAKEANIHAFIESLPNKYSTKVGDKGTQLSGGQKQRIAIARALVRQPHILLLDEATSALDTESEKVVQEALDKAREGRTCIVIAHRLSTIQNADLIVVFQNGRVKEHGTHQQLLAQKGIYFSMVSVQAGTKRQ
# [4] = biological target: T2, human liver microsomes (HLM) (Homo sapiens, UniProt P10632); assay: CYP reaction phenotyping using HLM and chemical inhibitors (% remaining); format: in vitro ADME; details: human, microsomes, 5 μM, pH 7.4
# T2 construct: from tissue; host or cells: pooled human liver microsomes
# T2 sequence (P10632 1-490): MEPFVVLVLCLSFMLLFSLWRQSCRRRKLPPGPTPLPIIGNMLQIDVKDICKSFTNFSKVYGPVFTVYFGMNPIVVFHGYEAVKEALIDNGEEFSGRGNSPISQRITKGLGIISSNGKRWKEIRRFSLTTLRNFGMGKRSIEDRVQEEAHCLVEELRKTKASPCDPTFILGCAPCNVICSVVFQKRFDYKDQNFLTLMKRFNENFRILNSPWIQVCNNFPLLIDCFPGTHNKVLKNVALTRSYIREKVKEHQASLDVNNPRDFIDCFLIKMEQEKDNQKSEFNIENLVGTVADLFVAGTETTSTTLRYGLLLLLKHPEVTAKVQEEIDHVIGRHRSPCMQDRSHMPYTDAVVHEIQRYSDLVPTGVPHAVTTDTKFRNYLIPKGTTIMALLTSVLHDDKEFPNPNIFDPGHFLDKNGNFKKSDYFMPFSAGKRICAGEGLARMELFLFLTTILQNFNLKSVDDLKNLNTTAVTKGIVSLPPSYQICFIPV
# Source text: (§1) % Remaining of TA=100×At/A0
# (§2) Where, At and A0 are the peak area ratio of TA to IS at time t and at time zero, respectively.
# [5] = biological target: T3, human liver microsomes (HLM) (Homo sapiens, UniProt P20813); assay: as above; format: in vitro ADME; details: human, microsomes, 5 μM, pH 7.4
# T3 construct: from tissue; host or cells: pooled human liver microsomes
# T3 sequence (P20813 1-491): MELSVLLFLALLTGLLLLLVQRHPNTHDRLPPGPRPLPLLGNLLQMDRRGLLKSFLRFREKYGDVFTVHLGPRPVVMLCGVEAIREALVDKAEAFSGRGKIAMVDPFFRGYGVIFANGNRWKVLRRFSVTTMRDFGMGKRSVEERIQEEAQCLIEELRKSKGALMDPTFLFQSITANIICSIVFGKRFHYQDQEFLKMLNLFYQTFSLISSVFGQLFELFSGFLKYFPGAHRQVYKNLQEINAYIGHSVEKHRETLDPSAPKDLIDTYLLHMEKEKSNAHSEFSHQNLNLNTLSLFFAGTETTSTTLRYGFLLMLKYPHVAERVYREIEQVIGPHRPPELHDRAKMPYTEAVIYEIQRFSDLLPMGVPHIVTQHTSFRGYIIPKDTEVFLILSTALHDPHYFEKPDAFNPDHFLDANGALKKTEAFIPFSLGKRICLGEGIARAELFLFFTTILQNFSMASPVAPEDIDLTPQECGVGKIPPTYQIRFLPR
# Source text: as §1, §2
Compound,recovery at 5 min [1],"Urine concentrations ([2]; male, Sprague Dawley, po)",IC50 (OATP1B1),plasma concentrations remained quantifiable through [3],IC50 (P-gp),% Remaining of TA (n = 3) Average ([4]; 0 h),% Remaining of TA (n = 3) Average ([4]; 5 min),% Remaining of TA (n = 3) Average ([4]; 10 min),% Remaining of TA (n = 3) Average ([4]; 20 min),% Remaining of TA (n = 3) Average ([4]; 0.5 h),% Remaining of TA (n = 3) Average ([4]; 1 h),% Remaining of TA (n = 3) Average ([5]; 0 h),% Remaining of TA (n = 3) Average ([5]; 5 min),% Remaining of TA (n = 3) Average ([5]; 10 min),% Remaining of TA (n = 3) Average ([5]; 20 min),% Remaining of TA (n = 3) Average ([5]; 0.5 h),% Remaining of TA (n = 3) Average ([5]; 1 h),detection in urine [2],mean endogenous plasma levels over the 24 hour time course [3]
"O=C(O)CCCc1ccccc1 [PB, sodium phenylbutyrate]",> 90%,"Urine concentrations for PB analysis in all animals on Day 1, for TUDCA analysis in all animals on Days 1 and 5, and for TDF analysis in two animals on Day 1 and one animal on Day 5 were BLQ (<20 ng/mL) so no recovery data was calculated.",1210 to 3630 µM,4 h,7160 to 21500 µM,–,–,–,–,–,–,–,–,–,–,–,–,–,–
"C[C@H](CCC(=O)NCCS(=O)(=O)O)[C@H]1CC[C@H]2[C@@H]3[C@@H](O)C[C@@H]4C[C@H](O)CC[C@]4(C)[C@H]3CC[C@]12C [TUDCA, tauroursodeoxycholic acid]",> 90%,–,12.9 to 38.7 µM,–,889 to 2670 µM,100%,101%,103%,95.5%,105%,97.7%,100%,112%,112%,122%,116%,102%,not detected in any urine samples,130 to 222 ng/mL

# Reference: patent publication US20230277630A1, “METHODS AND COMPOSITIONS FOR TREATING AMYOTROPHIC LATERAL SCLEROSIS” (Amylyx Pharmaceuticals, Inc., priority 2022, published 2023)
